Measurements as given in PubChem BioAssay (NCI).
Several values for one entry are separate records, joined by “and”; a condition that tells them apart may be missing. Equal entries are not always repeated.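 1) Cells in 96-well plates. 2) Compound, 48 h, 5 concentrations. 3) Linear interpolation between surrounding doses. 4) Unreached endpoint = highest concentration. GI50 marks 50% less growth. TGI: total growth inhibition.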

Assays:
Test in all cases: inhibition of tumour cell growth, NCI panel, 48 h
HCT-15 colon = test system: HCT-15 colon
SF-539 CNS = test system: SF-539 CNS
IGROV1 ovarian = test system: IGROV1 ovarian
SF-295 CNS = test system: SF-295 CNS
HT29 colon = test system: HT29 colon
PC-3 prostate = test system: PC-3 prostate
BT-549 breast = test system: BT-549 breast
NCI/ADR-RES ovarian = test system: NCI/ADR-RES ovarian
OVCAR-4 ovarian = test system: OVCAR-4 ovarian
HOP-92 NSCLC = test system: HOP-92 NSCLC

| Compound | TGI (HCT-15 colon) | TGI (SF-539 CNS) | TGI (IGROV1 ovarian) | TGI (SF-295 CNS) | TGI (HT29 colon) | TGI (PC-3 prostate) | TGI (BT-549 breast) | TGI (NCI/ADR-RES ovarian) | TGI (OVCAR-4 ovarian) | TGI (HOP-92 NSCLC) | GI50 (IGROV1 ovarian) | GI50 (SF-295 CNS) | GI50 (HOP-92 NSCLC) | GI50 (PC-3 prostate) | GI50 (BT-549 breast) | GI50 (NCI/ADR-RES ovarian) | GI50 (HCT-15 colon) | GI50 (SF-539 CNS) | GI50 (OVCAR-4 ovarian) | GI50 (HT29 colon) |
| --- | --- | --- | --- | --- | --- | --- | --- | --- | --- | --- | --- | --- | --- | --- | --- | --- | --- | --- | --- | --- |
| CCOC(=O)c1c(NC(=S)NCc2ccccc2)sc2c1CCN(C)C2 | > 100 µM | > 100 µM | > 100 µM | > 100 µM | > 100 µM | > 100 µM | > 100 µM | > 100 µM |  |  |  |  |  |  |  |  |  |  |  |  |
| COCOc1cc(OC)ccc1C=O | > 100 µM | 61.9 µM | > 100 µM | > 100 µM | 66.8 µM | 88.8 µM | > 100 µM | 52.1 µM | > 100 µM |  |  |  |  |  |  |  |  |  |  |  |
| Cc1cc2nc3c(C#N)c(-c4ccccc4)/c(=C\Nc4cccc(C(F)(F)F)c4)c(=O)n3c2cc1C | > 100 µM | > 100 µM |  | > 100 µM |  | > 100 µM | > 100 µM | > 100 µM | > 100 µM |  |  |  |  |  |  |  |  |  |  |  |
| COC(=O)CCCc1ccc2c(c1)CCC2 | > 100 µM | > 100 µM | > 100 µM | > 100 µM |  | > 100 µM | > 100 µM | > 100 µM | > 100 µM | > 100 µM |  |  |  |  |  |  |  |  |  |  |
| CN1CCN(c2ccc3nc(-c4ccc(OCCCN5C(=O)c6cccc7cccc(c67)C5=O)cc4)[nH]c3c2)CC1 |  |  | 66.1 µM | 89.2 µM |  | 4.95 µM | 6.13 µM | 4.7 µM |  | 3.29 µM | 21.8 µM | 14.5 µM | 1.66 µM | 2.04 µM | 2.66 µM | 2.09 µM |  |  |  |  |
| COC(=O)C1Cc2c([nH]c3ccccc23)-c2[nH]c3ccccc3c2CC(NC(C)=O)C(=O)NCC(=O)N1 (stereo not given) | > 100 µM | > 100 µM | > 100 µM | > 100 µM | > 100 µM | > 100 µM |  | > 100 µM | > 100 µM | > 100 µM |  |  |  |  |  |  |  |  |  |  |
| CC(=O)OC1COC(N2C(=O)C(=O)c3cc(Br)c([N+](=O)[O-])cc32)C(OC(C)=O)C1OC(C)=O (stereo not given) | > 100 µM | > 100 µM | > 100 µM | > 100 µM | > 100 µM |  |  |  | > 100 µM | 93.3 µM |  |  |  |  |  |  |  |  |  |  |
| CCC1=C(C)C2=NC1=CC1=NC(=C(CC)/C1=C/O)C=C1N=C3C(=C1C)C(=O)C(C(=O)OC)C3=C1NC(=C2)C(C)C1CCC(=O)OC (stereo not given) | > 100 µM | > 100 µM | > 100 µM | > 100 µM | > 100 µM | > 100 µM | > 100 µM |  | > 100 µM | > 100 µM |  |  |  |  |  |  |  |  |  |  |
| COc1ccc(N=NN2CCCC2)cc1 | 60.7 µM | 66.7 µM | 41 µM | > 100 µM | > 100 µM | > 100 µM | 60.6 µM |  | 43.6 µM | 42.4 µM |  |  |  |  |  |  |  |  |  |  |
| COc1cc(-c2ccc(-c3ccc(C(=N)N)s3)s2)cc(OC)c1OC | 4.51 µM | 3.02 µM |  | 3.39 µM |  |  |  | 12.9 µM | 3.95 µM |  |  | 1.78 µM |  |  |  | 3.44 µM | 1.91 µM | 1.58 µM | 1.82 µM |  |
| O=C(/C=C1\N=C(c2ccccc2)N(c2ccc3c(c2)Sc2cc(N4C(=O)/C(=C/C(=O)/C=C/c5ccccc5)N=C4c4ccccc4)ccc2N3)C1=O)/C=C/c1ccccc1 | > 100 µM |  | > 100 µM | 57 µM | > 100 µM | 37.6 µM | 52.6 µM | > 100 µM | 41.8 µM | > 100 µM |  |  |  |  |  |  |  |  |  |  |
| CC(=O)c1nc2ccccc2n1CC(=O)c1ccc([N+](=O)[O-])cc1 | > 100 µM | > 100 µM | 14.5 µM | 36.1 µM | 46 µM | 44.4 µM | 52.6 µM | 49.2 µM | > 100 µM |  |  |  |  |  |  |  |  |  |  |  |
| N#CC(C(=O)c1ccccc1F)c1nc2cc(C(F)(F)F)ccc2s1 (stereo not given) | 56.7 µM | 78.5 µM | > 100 µM | 73.4 µM | 53.2 µM |  | 69.4 µM | > 100 µM | > 100 µM | 56.2 µM |  |  |  |  |  |  |  |  |  |  |
| CC1(C)COC(c2cccc(C3=NC(C)(C)CO3)c2)=N1 | > 100 µM | > 100 µM | > 100 µM |  | > 100 µM | > 100 µM | > 100 µM | > 100 µM | > 100 µM | > 100 µM |  |  |  |  |  |  |  |  |  |  |
| COc1cc2c(cc1-c1c(C)noc1C)ncc1nc(C3CCCCC3)n(C3CCC(OC(F)F)CC3)c12 (stereo not given) |  |  | > 100 µM |  |  |  |  |  | > 100 µM | 4.62 µM | 3.94 µM |  | 1.53 µM |  |  |  |  |  | 2.17 µM |  |
| COc1ccc(NS(=O)C2CCCCC2)cc1 (stereo not given) | > 100 µM | > 100 µM | > 100 µM | > 100 µM | > 100 µM |  |  | > 100 µM |  |  |  |  |  |  |  |  |  |  |  |  |
| CC(C)(C)CC(C)(C)Cc1ccc(OCCOCC[N+](C)(C)Cc2ccccc2)cc1 | 33.5 µM | 3.21 µM | 2.86 µM | 15.5 µM | 3.1 µM |  |  | 58.6 µM | 3.94 µM | 2.56 µM | 1.33 µM | 3.62 µM | 1.23 µM |  |  | 21.5 µM | 14.4 µM | 1.7 µM | 0.681 µM | 1.5 µM |
| CC(=O)OCC1OC(n2c(-c3ccccc3)c(N=Nc3ccc(Cl)cc3)c(C)c(C#N)c2=S)C(OC(C)=O)C(OC(C)=O)C1OC(C)=O (stereo not given) | 29.1 µM and > 100 µM | 43.7 µM and > 100 µM | > 100 µM | > 100 µM | 49.1 µM and > 100 µM | 37.4 µM and > 100 µM | 20.1 µM and 58.8 µM | > 100 µM | > 100 µM |  | 7.17 µM and 29.9 µM | 25.2 µM and 56.7 µM |  |  | 5.4 µM and 17.9 µM | 6.76 µM and 33.2 µM | 7.59 µM and 59.8 µM |  | 13.8 µM and 31.8 µM | 20.1 µM and 87.7 µM |
| Cc1nn(-c2ccccc2)c(C)c1/C=N/NC(=O)c1sc(=S)n(-c2ccc(Cl)cc2)c1N | > 100 µM | > 100 µM | 4.26 µM | 5.37 µM | > 100 µM | > 100 µM | > 100 µM | > 100 µM | 95.7 µM |  |  |  |  |  |  |  |  |  |  |  |
| CC1OC(OC2C(CO)OC(O[C@H]3CC[C@@]4(C)C(=CC[C@H]5[C@@H]6C[C@@H]7O[C@](O)(CC[C@@H](C)COC8OC(CO)C(O)C(O)C8O)[C@@H](C)[C@@H]7[C@@]6(C)CC[C@@H]54)C3)C(OC3OC(C)C(O)C(O)C3O)C2O)C(O)C(O)C1O (stereo not given in full) | 3.91 µM | 4.21 µM |  | 11.8 µM |  | 5.51 µM | 11.1 µM | 4.22 µM | 20.8 µM |  |  |  |  |  |  |  |  |  |  |  |
